Data taken from US9777069B2, “Compositions and methods for detection of methadone metabolite” (Siemens Healthcare Diagnostics Inc., priority 2012, dated 2017).

System: anti-EDDP antibody
Assay: Assay for EDDP analyte: homogeneous enzyme immunoassay with G6PDH-product of Step 14-SH-Step 14 conjugate, absorbance at 340 nm
Assay type: binding
Conditions: 1 min after enzyme conjugate addition, Tris buffer pH 7.8
Method: The experiments were conducted on an AGILENT® 8453 UV spectrophotometer (Agilent Technologies, Santa Clara Calif.). Typically, 2.5 mL Tris buffer (50 mM, containing 3.3 mM MgCl2, pH 7.8), 0.2 ml anti-EDDP antibody (1 mg/mL, commercially available from Lin Zhi International Inc. Sunnyvale Calif.), 0.1 mL glucose-6-phosphate (0.1 M), 0.1 mL NADP (0.006M) were taken in a quartz cuvette. To this, 0-4029 ng/mL EDDP in 10 μL methanol was added and mixed well. Then, 10 μL G6PDH-product of Step 14-SH-Step 14 (1 mg/mL) was added and mixed well. Increase in the absorbance at 340 nm was monitored at 1 min after the enzyme addition.

CC=C1N(C)C(C)CC1(c1ccccc1)c1ccccc1 (stereo not drawn) [EDDP, 2-ethylidene-1,5-dimethyl-3,3-diphenylpyrrolidine]
mAu 340 nm (increase in the absorbance at 340 nm) (EDDP 370 ng/mL): 456 mAu | mAu 340 nm (increase in the absorbance at 340 nm) (EDDP 1221 ng/mL): 497 mAu | mAu 340 nm (increase in the absorbance at 340 nm) (EDDP 4029 ng/mL): 561 mAu
